These results are taken from patent publication US9737535B2, “Methods for treating cancer using TOR kinase inhibitor combination therapy comprising administering substituted pyrazino[2,3-b]pyrazines” (Signal Pharmaceuticals, LLC, priority 2014, dated 2017).

The structures appear in SMILES notation.

Assay in all cases: Anti-proliferation assay (ATPLite), Chalice synergy score
What all share (assay type): cell-based

One test deals with HCC70. Particulars: Compound 1 in combination with second active agent; HCC-70; mean self-cross + 2σ threshold 3.45. An excerpt: (§1) Cells were thawed from a liquid nitrogen preserved state.
(§2) The calculation for synergy score is provided below.
(§3) If T≧V0:100*[1−(T−V0)/(V−V0)]

For the next test, the system named is HCC-1937. Particulars: Compound 1 in combination with the named second active agent, 72 h, mean of n = 3 experiments in triplicate.
Text: as §1, §2, §3

The test system of a further test is MCF7. The conditions noted are these: Compound 1 in combination with second active agent, mean self-cross + 2σ threshold 3.07.
Text: as §1, §2, §3

The subject of the next test is MDA-MB-231. The conditions noted are these: Compound 1 in combination with second active agent, mean self-cross + 2σ threshold 2.61.
Text: as §1, §2, §3

Another test concerns MDA-MB-157. Particulars: Compound 1 in combination with second active agent, mean self-cross + 2σ threshold 4.68.
Text: as §1, §2, §3

The next test relates to MDA-MB-436. The conditions noted are these: Compound 1 in combination with second active agent, mean self-cross + 2σ threshold 1.91.
Text: as §1, §2, §3

The next test concerns BT-474. The conditions noted are these: Compound 1 in combination with the named second active agent, 72 h, mean of n = 3 experiments in triplicate.
Text: as §1, §2, §3

The next test relates to HCC-1428. Particulars: Compound 1 in combination with the named second active agent, 72 h, mean of n = 3 experiments in triplicate.
Text: as §1, §2, §3

The test system of a further test is Hs-578-T. The conditions noted are these: Compound 1 in combination with second active agent, mean self-cross + 2σ threshold 4.09.
Text: as §1, §2, §3

For the next test, the system named is MDA-MB-468. The conditions noted are these: Compound 1 in combination with second active agent, mean self-cross + 2σ threshold 4.66.
Text: as §1, §2, §3

In a further test the test system is HCC-1806. Particulars: Compound 1 in combination with the named second active agent, 72 h, mean of n = 3 experiments in triplicate.
Text: as §1, §2, §3

The next test concerns BT-549. The conditions noted are these: Compound 1 in combination with the named second active agent, 72 h, mean of n = 3 experiments in triplicate.
Text: as §1, §2, §3

A further test deals with BT-20. On the set-up: scale not given here. The conditions noted are these: Compound 1 in combination with the named second active agent, 72 h, mean of n = 3 experiments in triplicate.
Text: as §1, §2, §3

Another test deals with HCC-1187. On the set-up: scale not given here. The conditions noted are these: Compound 1 in combination with the named second active agent, 72 h, mean of n = 3 experiments in triplicate.
Text: as §1, §2, §3

Another test relates to HCC-1500. On the set-up: scale not given here. The conditions noted are these: Compound 1 in combination with the named second active agent, 72 h, mean of n = 3 experiments in triplicate.
Text: as §1, §2, §3

Consider `CS(=O)(=O)N1CCN(Cc2cc3nc(-c4cccc5[nH]ncc45)nc(N4CCOCC4)c3s2)CC1` [GDC-0941], for which the Synergy score is listed as 6.42 in the test on HCC70; 4.39 in the test with HCC-1937; 5.22 in the test on MCF7; 1.76 with MDA-MB-231; 5.60 in the test on MDA-MB-157; 1.25 with MDA-MB-436. Besides, the Synergy score was determined as 5.04 with BT-474; 1.90 in the test with HCC-1428; 7.23 in the test with Hs-578-T; 3.21 in the test on MDA-MB-468; 6.16 in the test with HCC-1806; 4.39 in the test on BT-549. Besides, the Synergy score in the test on BT-20 was determined as 6.56; in the test on HCC-1187, 5.18; in the test on HCC-1500, 1.45.
On to `CN(C)CC[C@H](CSc1ccccc1)Nc1ccc(S(=O)(=O)NC(=O)c2ccc(N3CCN(Cc4ccccc4-c4ccc(Cl)cc4)CC3)cc2)cc1[N+](=O)[O-]` [ABT-737], for which the Synergy score stood at 9.10 in the test on HCC70; 5.46 in the test with HCC-1937; 6.97 with MCF7; 10.00 in the test on MDA-MB-231; 4.46 in the test on MDA-MB-157; 0.56 in the test with MDA-MB-436. Besides, the Synergy score worked out at 4.14 in the test on BT-474; 10.60 in the test on HCC-1428; 10.00 in the test on Hs-578-T; 8.29 in the test with MDA-MB-468; 6.15 in the test on HCC-1806; 6.10 with BT-549. For the same compound, the Synergy score in the test on BT-20 is 7.28; with HCC-1187 it was 8.77; in the test with HCC-1500, 4.23.
`CO[C@H]1/C=C\C=C(/C)C(=O)NC2=CC(=O)C(NCCN(C)C)=C(C[C@@H](C)C[C@H](OC)[C@H](O)[C@@H](C)/C=C(\C)[C@@H]1OC(N)=O)C2=O` [Compound 17-DMAG]: the Synergy score with HCC70 is 11.10; with HCC-1937 it was 1.70; in the test on MCF7, 0.13; in the test with MDA-MB-231 it was 1.00; in the test on MDA-MB-157, 6.09; in the test on MDA-MB-436 it was 0.61. Also, the Synergy score is recorded as 2.24 in the test on BT-474; 2.46 with HCC-1428; 0.45 in the test with Hs-578-T; 7.72 in the test with MDA-MB-468; 1.40 in the test on HCC-1806; 0.01 with BT-549. The Synergy score in the test on BT-20 is 5.94; in the test with HCC-1187, 0.33; with HCC-1500, 0.99.
Consider `Cc1ccc(S(=O)(=O)/C=C/C#N)cc1` [Bay 11-7082], for which the Synergy score in the test with HCC70 came to 1.13; with HCC-1937, 1.23; with MCF7 it was 0.02; in the test with MDA-MB-231, 0.61; in the test on MDA-MB-157, 3.65; in the test on MDA-MB-436 it was 1.24. The Synergy score in the test on BT-474 stood at 0.93; with HCC-1428, 1.53; in the test on Hs-578-T it was 1.51; in the test with MDA-MB-468 it was 1.89; in the test on HCC-1806, 1.01; in the test on BT-549, 1.16. For the same compound, the Synergy score in the test on BT-20 was determined as 0.00; with HCC-1187 it was 0.51; in the test with HCC-1500 it was 0.52.
In the case of `O=C(Nc1cc(C(F)(F)F)cc(C(F)(F)F)c1)c1cc(Cl)ccc1O` [IMD-0354], the Synergy score in the test on HCC70 is 0.88; with HCC-1937, 6.42; in the test on MCF7 it was 2.88; in the test on MDA-MB-231 it was 6.14; in the test with MDA-MB-157 it was 4.80; with MDA-MB-436, 3.94. Moreover, the Synergy score in the test on BT-474 is given as 1.77; in the test with HCC-1428 it was 0.51; with Hs-578-T, 3.35; in the test on MDA-MB-468, 3.80; with HCC-1806, 7.45; with BT-549, 2.68. Also, the Synergy score in the test on BT-20 is listed as 1.85; in the test with HCC-1187, 1.86; with HCC-1500 it was 1.42.
